The text below walks through data of patent publication US6693123B2 (University of Pittsburgh, priority 1995, dated 2004).

Structures can show the parent of a compound that is named as a salt. Bounds are passed on as bounds.

The target of one assay is T1, Rat brain protein farnesyltransferase (Rattus norvegicus, UniProt Q02293+Q04631).
T1 construct: The enzyme is purified according to Reiss, Y., et al., Cell, 62: 81-88 (1990), utilizing steps one through three; from tissue; host or cells: rat brain
The assay can be described thus: In vitro inhibition of protein farnesyltransferase, Amersham scintillation proximity assay with biotin-K Ras B fragment. The class given is biochemical. To be noted: Inhibition of farnesyltransferase; compound at 1 × 10^−5 M (Table 1). From the text:
The ability of the compounds of the invention to inhibit protein farnesyltransferase or protein geranylgeranyltransferase can be measured according to the method of Moores, et al., J. Biol. Chem. 266: 14603 (1991) or the method of Vogt, et al., J. Biol. Chem. 270:660-664 (1995). In addition, procedures for determination of the inhibition of farnesylation of the oncogene protein Ras are described by Goldstein, et al., J. Biol. Chem., 266:15575-15578 (1991) and by Singh in U.S. Pat. No. 5,245,061.
In addition, in vitro inhibition of protein farnesyltransferase may be measured by the following procedure. Rat brain protein farnesyltransferase activity is measured using an Amersham Life Science commercial scintillation proximity assay kit and substituting a biotin-K Ras B fragment (biotin-[…]Ue-Met-CO2H), 0.1 mM final concentration, for the biotin-lamin substrate provided by Amersham. The enzyme is purified according to Reiss, Y., et al., Cell, 62: 81-88 (1990), utilizing steps one through three. […]
The % inhibition of protein farnesyltransferase was determined for representative compounds of the invention.
For orientation: Scintillation proximity formats need no separation of bound from free tracer.
As usually defined, the inhibition is the relative decrease from the control value, in per cent. Regarding `CSCC[C@H](NC(=O)c1ccc(NC(=O)c2cccnc2)cc1-c1ccccc1)C(=O)O` [Example 200, [4-(3-Pyridylcarbonylamino)-2-phenylbenzoyl]methionine Hydrochloride], the inhibition at 10 µM amounted to 93%.

Still in this assay, the particulars now being: Inhibition of farnesyltransferase; compound at 1 × 10^−6 M (Table 2).
By % inhibition is commonly meant the change of the read-out against control, counted positive when it falls. `CSCC[C@H](NC(=O)c1ccc(NC(=O)c2cnccc2C(F)(F)F)cc1-c1ccccc1C)C(=O)[O-].[Li+]` [Example 481, N-[4-N-(4-Trifluoromethylnicotinoyl)amino-2-(2-methylphenyl)benzoyl]methionine Lithium Salt]: the “% inhibition at 1 × 10^−6 M” value is recorded as 95%. Still for that read-out and setting: with `CSCCC(NC(=O)c1ccc(C=Cc2cccnc2)cc1-c1ccccc1C)C(=O)NS(=O)(=O)c1ccc(C)cc1` (stereo not shown) [Example 277, {4-[2-(Pyrid-3-yl)ethenyl]-2-(2-methylphenyl)benzoyl}methionine 4-Tolylsulfonamide] the figure was 98%; with `CSCC[C@H](NC(=O)c1ccc(C=Cc2cccnc2)cc1-c1ccccc1C)C(=O)OCOC(C)=O` [Example 295], 94%; with `Cc1ccccc1-c1cc(COc2cccnc2)ccc1C(=O)N[C@@H](CCC(N)=O)C(=O)O` [Example 313, (S)-2-N-[4-(3-Pyridyloxymethyl)-2-(2-methyl)phenylbenzoyl]amino-4-(aminocarbonyl)butanoic Acid], 94%.

For “{4-[2-(3-Pyridy)-2-hydroxyethyl]-2-phenylbenzoyl]methionine Sodium Salt and {4-[2-(3-Pyridy)-1-hydroxyethyl]-2-phenylbenzoyl}methionine Sodium Salt [Example 284]”, the “% inhibition at 1 × 10^−6 M” value is listed as 83%.

The same assay, now with this note: Inhibition of farnesyltransferase; compound at 1 × 10^−6 M (Table 2); read-out: % inhibition at 1 × 10^−6 M.
Turning to `CSCC[C@H](NC(=O)c1ccc(COc2cccnc2)cc1-c1cccc(C)c1)C(=O)O` [Example 205, [4-(3-Pyridyloxymethyl)-2-(3-methylphenyl)benzoyl]methionine], the inhibition at 1 µM came to 98%.

For the compound `CSCC[C@H](NC(=O)c1ccc(CSc2cccnc2)cc1-c1ccccc1C)C(=O)NS(=O)(=O)c1ccccc1` [Example 325], the inhibition at 1 µM came to 99%.

Consider `CCN(CC)C(=O)COC(=O)[C@H](CCSC)NC(=O)c1ccc(CN(Cc2ccccc2)c2cccnc2)cc1-c1ccccc1C` [Example 501, N,N-Diethylaminocarbonylmethyl N-[4-N-benzyl-N-pyridin-3-ylaminomethyl-2-(2-methylphenyl)benzoyl]methionine], for which the inhibition at 1 µM came to 84%. In the case of `COc1ccncc1NCc1ccc(C(=O)N[C@@H](CCSC)C(=O)O)c(-c2ccccc2)c1` [Example 281, [4-(4-Methoxypyrid-3-ylaminomethyl)-2-phenylbenzoyl]methionine Sodium Salt], the inhibition at 1 µM came out at 98%.

For `CSCC[C@@H](NC(=O)c1ccc(CNc2cccnc2)cc1-c1ccccc1)C(=O)O` (stereo in doubt) [Example 189, [4-(3-Pyridylaminomethyl)-2-phenylbenzoyl]methionine], the inhibition at 1 µM stood at 88%. Still for that read-out and setting: with `CSCC[C@H](NC(=O)c1ccc(NC(=O)c2cccnc2)cc1-c1ccccc1C)C(=O)O` [Example 301, [4-(3-Pyridylcarbonylamino)-2-(2-methylphenyl)benzoyl]methionine] the figure was 98%.

Consider `CSCC[C@H](NC(=O)c1ccc(CNc2ccccn2)cc1-c1ccccc1)C(=O)O` [Example 160, [4-(2-Pyridylaminomethyl)-2-phenylbenzoyl]methionine], for which the inhibition at 1 µM was determined as 30%. The same measure, in the same setting: for `CSCC[C@H](NC(=O)c1ccc(CN(Cc2ccccc2)c2cccnc2)cc1-c1ccccc1C)C(=O)OCOC(=O)C(C)(C)C` [Example 500, Pivaloyloxymethyl N-[4-N-Benzyl-N-pyridin-3-ylaminomethyl-2-(2-methylphenyl)benzoyl]methionine] the value was 98%. With `COC(=O)[C@H](CCSC)NC(=O)c1ccc(COc2cccnc2)cc1-c1ccccc1` [Example 234, [4-(3-Pyridyloxymethyl)-2-phenylbenzoyl]methionine Methyl Ester], the inhibition at 1 µM was 4%. Still for that read-out and setting: for `COC(=O)[C@H](CCSC)NC(=O)c1ccc(CNc2cccnc2)cc1-c1ccccc1` [Example 226, [4-(Pyrid-3-ylaminomethyl)-2-phenylbenzoyl]methionine Methyl Ester Hydrochloride] the value was 23%; for `CSCC[C@H](NC(=O)c1ccc(COc2cccnc2)cc1-c1ccccc1C)C(=O)NS(C)(=O)=O` [Example 252, [4-(3-Pyridyloxymethyl)-2-(2-methylphenyl)benzoyl]methionine Methylsulfonimide], 98%. Still for that read-out and setting: with `CCCCc1cc(C(=O)N[C@@H](CCSC)C(=O)O)c(-c2ccccc2C)cc1COc1cccnc1` [Example 319, [4-(3-Pyridyloxymethyl)-2-(2-methylphenyl)-5-butylbenzoyl]methionine] the figure was 98%; with `CNC(=O)[C@H](CCSC)NC(=O)c1ccc(NCc2cccnc2)cc1-c1ccccc1` [Example 197, [4-(3-Pyridylmethylamino)-2-phenylbenzoyl]methioninemethylamide], 1%; with `CSCC[C@H](NC(=O)c1cc(Cc2ccccc2)c(COc2cccnc2)cc1-c1ccccc1C)C(=O)O` [Example 344], 95%. The same measure, in the same setting: for `Cc1ccccc1-c1cc(/C=C/c2cnc3ccccc3c2)ccc1C(=O)N[C@@H](CC[S+](C)[O-])C(=O)O` (stereo partly shown) [Example 488] the value was 41%.

Still in this assay, the particulars now being: Inhibition of farnesyltransferase; compound at 1 × 10^−7 M (Table 3); read-out: % inhibition at 1 × 10^−7 M.
With `CSCC[C@H](NC(=O)c1cc(CC2CCCCC2)c(COc2cccnc2)cc1-c1ccccc1C)C(=O)O` [Example 921, N-[5-Cyclohexylmethyl-4-(pyrid-3-yloxymethyl)-2-(2-methylphenyl)benzoyl]methionine], the inhibition at 0.1 µM was found to be 82%. The same measure, in the same setting: with `CSCC[C@H](NC(=O)c1ccc(CN(c2cccnc2)S(=O)(=O)c2ccccc2)cc1-c1ccccc1C)C(=O)O` [Example 570, N-[4-N-Phenylsulfonyl-N-pyrid-3-ylaminomethyl-2-(2-methylphenyl)benzoyl]methionine] the figure was 92%; with `CSCCC(OC(=O)c1ccc(/C=C/c2cccnc2)cc1-c1ccccc1C)C(=O)O` (stereo not shown) [Example 814, 2-[4-(2-Pyrid-3-ylethen-1-yl)-2-(2-methylphenyl)benzoyl]oxy-4-methylthiobutanoic Acid], 81%.

Staying with this assay, now noted: Inhibition of farnesyltransferase; compound at 1 × 10^−8 M (Table 4); read-out: % inhibition at 1 × 10^−8 M.
Regarding `CSCC[C@H](NC(=O)c1ccc(CNCc2c[nH]cn2)cc1-c1ccccc1C)C(=O)O` [Example 954, N-[4-(Imidazol-4-ylmethylaminomethyl)-2-(2-methylphenyl)benzoyl]methionine], the inhibition at 0.01 µM was more than 50%. The same measure, in the same setting: for `CSCC[C@H](NC(=O)c1ccc(CN(CC2CCCCC2)c2cccnc2)cc1-c1ccccc1C)C(=O)O` [Example 408] the value was more than 95%; for `CC[C@H](NC(=O)c1ccc(COc2cccnc2)cc1-c1ccccc1)C(=O)O` [Example 760, (2S)-2-N-[4-(3-Pyridyloxymethyl)-2-phenylbenzoyl]aminobutanoic Acid], 95%.

Staying with this assay, now noted: read-out: % inhibition at 0.01 μM.
Consider `CSCC[C@H](NC(=O)c1ccc(C=Cc2cnccc2O)cc1-c1ccccc1C)C(=O)O` [Example 1039, N-[4-(2-(4-Hydroxypyridin-3-yl)ethenyl)-2-(2-methylphenyl)benzoyl]methionine Lithium Salt], for which the inhibition at 0.01 µM was 89%. Regarding `CSCC[C@H](NC(=O)c1ccc(/C=C/c2cnccc2Cl)cc1-c1ccccc1C)C(=O)O` [Example 1040, N-[4-(2-(4-Chloropyridin-3-yl)ethenyl)-2-(2-methylphenyl)benzoyl]methionine Lithium Salt], the inhibition at 0.01 µM was 90%.

The same assay, now with this note: read-out: % inhibition at 1 × 10^−6 M.
In the case of `CSCC[C@H](NC(=O)c1ccc(CNc2cnccc2C)cc1-c1ccccc1)C(=O)O` [Example 280], the inhibition at 1 µM came out at 98%. The same measure, in the same setting: with `CSCC[C@H](NC(=O)c1ccc(NC(=O)c2cnccc2C(F)(F)F)cc1-c1ccccc1)C(=O)O` [Example 282, [4-(4-Trifluoromethylpyrid-3-ylcarbonylamino)-2-phenylbenzoyl]methionine Sodium Salt] the figure was 76%. Still for that read-out and setting: with `CSCC[C@H](NC(=O)c1ccc(C(=O)N(Cc2ccccc2)c2cccnc2)cc1-c1ccccc1C)C(=O)O` [Example 451, N-[4-(N-3-Pyridyl-N-benzyl)carbonyl-2-(2-methylphenyl)benzoyl]methionine] the figure was 85%.

Staying with this assay, now noted: read-out: % inhibition at 1 × 10^−7 M.
As for `CSCC[C@H](NC(=O)c1ccc(CCc2cncc(Cc3ccccc3)c2)cc1-c1ccccc1C)C(=O)O` [Example 799, Lithium Salt], the inhibition at 0.1 µM was 96%.

Staying with this assay, now noted: read-out: % inhibition at 1 × 10^−8 M.
As to `CSCC[C@H](NC(=O)c1ccc(/C=C/c2cnccc2C(O)(c2ccccc2)c2ccccc2)cc1-c1ccccc1C)C(=O)O` [Example 805, Lithium Salt], the inhibition at 0.01 µM came out at 96%.
